Laboratory results: ChEMBL document CHEMBL1145601, “The design and synthesis of diaryl ether second generation HIV-1 non-nucleoside reverse transcriptase inhibitors (NNRTIs) with enhanced potency versus key clinical mutations” (Bioorg Med Chem Lett, 2008)

Tests used:
[1] = target: Human immunodeficiency virus type 1 reverse transcriptase (Human immunodeficiency virus 1, UniProt Q72547, Y181C); assay: Inhibition of HIV1 reverse transcriptase Y181C mutant by SPA assay
[2] = test system: Human immunodeficiency virus 1; assay: Antiviral activity against HIV1 in human MT4 cells in presence of 50% normal human serum; format: functional; details: Human immunodeficiency virus 1, MT4; read-out: CIC95
[3] = target: Human immunodeficiency virus type 1 reverse transcriptase (Human immunodeficiency virus 1, UniProt Q72547); assay: Inhibition of HIV1 reverse transcriptase by SPA assay
[4] = target: Human immunodeficiency virus type 1 reverse transcriptase (Human immunodeficiency virus 1, UniProt Q72547, K103N); assay: Inhibition of HIV1 reverse transcriptase K103N mutant by SPA assay
[5] = test system: Human immunodeficiency virus 1; assay: Antiviral activity against HIV1 in human MT4 cells in RPMI1640 media containing fetal bovine serum; format: functional; details: Human immunodeficiency virus 1, MT4; read-out: CIC95
[6] = test system: Human immunodeficiency virus 1; assay: Antiviral activity against HIV1 with RT Y181C mutation in human MT4 cells in presence of 10% fetal bovine serum; format: functional; details: Human immunodeficiency virus 1, MT4; read-out: CIC95
[7] = test system: Human immunodeficiency virus 1; assay: Antiviral activity against HIV1 with RT K103N mutation in human MT4 cells in presence of 10% fetal bovine serum; format: functional; details: Human immunodeficiency virus 1, MT4; read-out: CIC95
[8] = AUC in Beagle dog at 0.25 mg/kg, iv; format: ADME, organism-based, Canis lupus familiaris; parameters: dose 0.25 mg/kg, route intravenous; details: plasma
[9] = Half life in rhesus monkey at 1 mg/kg, iv; format: ADME, organism-based, Macaca mulatta; parameters: dose 1 mg/kg, route intravenous; details: in vivo
[10] = test system: Human immunodeficiency virus 1; assay: Antiviral activity against HIV1 with RT G190A mutation in human MT4 cells in presence of 40% normal human serum; format: functional, organism-based; details: Human immunodeficiency virus 1, MT4
[11] = Volume of distribution in Sprague-Dawley rat at 10 mg/kg, po and 2 mg/kg, iv; format: ADME, organism-based; details: in vivo
[12] = AUC in Sprague-Dawley rat at 10 mg/kg, po and 2 mg/kg, iv; format: ADME, organism-based; details: plasma
[13] = test system: Human immunodeficiency virus 1; assay: Antiviral activity against HIV1 with RT K103N/Y181C/G190A mutation in human MT4 cells in presence of 40% normal human serum; format: functional, organism-based; details: Human immunodeficiency virus 1, MT4
[14] = test system: Human immunodeficiency virus 1; assay: Antiviral activity against HIV1 with RT L100I mutation in human MT4 cells in presence of 40% normal human serum; format: functional, organism-based; details: Human immunodeficiency virus 1, MT4
[15] = test system: Human immunodeficiency virus 1; assay: Antiviral activity against HIV1 with RT K103N/V179E mutation in human MT4 cells in presence of 40% normal human serum; format: functional, organism-based; details: Human immunodeficiency virus 1, MT4
[16] = test system: Human immunodeficiency virus 1; assay: Antiviral activity against HIV1 with RT K103N/P225H mutation in human MT4 cells in presence of 40% normal human serum; format: functional, organism-based; details: Human immunodeficiency virus 1, MT4
[17] = Clearance in Sprague-Dawley rat at 2 mg/kg, iv; format: ADME, organism-based; parameters: dose 2 mg/kg, route intravenous; details: in vivo
[18] = test system: Human immunodeficiency virus 1; assay: Antiviral activity against HIV1 with RT Y181C/G190A mutation in human MT4 cells in presence of 40% normal human serum; format: functional, organism-based; details: Human immunodeficiency virus 1, MT4
[19] = test system: Human immunodeficiency virus 1; assay: Antiviral activity against HIV1 with RT Y181C mutation in human MT4 cells in presence of 40% normal human serum; format: functional, organism-based; details: Human immunodeficiency virus 1, MT4
[20] = Volume of distribution in rhesus monkey at 1 mg/kg, iv; format: ADME, organism-based, Macaca mulatta; parameters: dose 1 mg/kg, route intravenous; details: in vivo
[21] = test system: Human immunodeficiency virus 1; assay: Antiviral activity against HIV1 with RT K103N/G190A mutation in human MT4 cells in presence of 40% normal human serum; format: functional, organism-based; details: Human immunodeficiency virus 1, MT4
[22] = test system: Human immunodeficiency virus 1; assay: Antiviral activity against HIV1 with RT K103N mutation in human MT4 cells in presence of 40% normal human serum; format: functional, organism-based; details: Human immunodeficiency virus 1, MT4
[23] = test system: Human immunodeficiency virus 1; assay: Antiviral activity against HIV1 in human MT4 cells in presence of 40% normal human serum; format: functional, organism-based; details: Human immunodeficiency virus 1, MT4
[24] = test system: Human immunodeficiency virus 1; assay: Antiviral activity against HIV1 with RT K103N/Y181C mutation in human MT4 cells in presence of 40% normal human serum; format: functional, organism-based; details: Human immunodeficiency virus 1, MT4
[25] = Oral bioavailability in Sprague-Dawley rat at 10 mg/kg, po and 2 mg/kg, iv; format: ADME, organism-based; details: in vivo
[26] = test system: Human immunodeficiency virus 1; assay: Antiviral activity against HIV1 with RT K101E/G190A mutation in human MT4 cells in presence of 40% normal human serum; format: functional, organism-based; details: Human immunodeficiency virus 1, MT4
[27] = test system: Human immunodeficiency virus 1; assay: Antiviral activity against HIV1 with RT Y188L mutation in human MT4 cells in presence of 40% normal human serum; format: functional, organism-based; details: Human immunodeficiency virus 1, MT4
[28] = Volume of distribution in Beagle dog at 0.25 mg/kg, iv; format: ADME, organism-based, Canis lupus familiaris; parameters: dose 0.25 mg/kg, route intravenous; details: in vivo
[29] = Half life in Beagle dog at 0.25 mg/kg, iv; format: ADME, organism-based, Canis lupus familiaris; parameters: dose 0.25 mg/kg, route intravenous; details: in vivo
[30] = Clearance in Beagle dog at 0.25 mg/kg, iv; format: ADME, organism-based, Canis lupus familiaris; parameters: dose 0.25 mg/kg, route intravenous; details: in vivo
[31] = test system: Human immunodeficiency virus 1; assay: Antiviral activity against HIV1 with RT G190S mutation in human MT4 cells in presence of 40% normal human serum; format: functional, organism-based; details: Human immunodeficiency virus 1, MT4
[32] = AUC in rhesus monkey at 1 mg/kg, iv; format: ADME, organism-based, Macaca mulatta; parameters: dose 1 mg/kg, route intravenous; details: plasma
[33] = Half life in Sprague-Dawley rat at 2 mg/kg, iv; format: ADME, organism-based; parameters: dose 2 mg/kg, route intravenous; details: in vivo
[34] = Clearance in rhesus monkey at 1 mg/kg, iv; format: ADME, organism-based, Macaca mulatta; parameters: dose 1 mg/kg, route intravenous; details: in vivo

**Q.** For `N#Cc1cc(Cl)cc(Oc2cc(OCc3nc4ccccc4s3)ccc2Cl)c1`, which IC50 [1] is on record?
**A.** 54.9 nM

**Q.** What about the IC95 [2] of the same compound?
**A.** 1250 nM

**Q.** And the IC50 [3]?
**A.** 19.3 nM

**Q.** What about the IC50 [4] of the same compound?
**A.** 79.2 nM

**Q.** And the IC95 [5]?
**A.** 312 nM

**Q.** Which IC50 [1] does the source give for `CS(=O)(=O)c1ccc(NC(=O)COc2ccc(Cl)c(Oc3cc(Cl)cc(C#N)c3)c2)c(Cl)c1` here?
**A.** 0.91 nM

**Q.** What about the IC95 [2] of the same compound?
**A.** 78 nM

**Q.** And the IC50 [3]?
**A.** 0.99 nM

**Q.** What about the IC50 [4] of the same compound?
**A.** 1.33 nM

**Q.** And the IC95 [5]?
**A.** 31 nM

**Q.** Which results are given for `CS(=O)(=O)c1ccc2c(c1)CCN2C(=O)COc1ccc(Cl)c(Oc2cc(Cl)cc(C#N)c2)c1`?
**A.** IC50 [1]: 1.7 nM; IC95 [6]: 14.3 nM; IC95 [2]: 29.7 nM; IC50 [3]: 0.86 nM; IC50 [4]: 0.33 nM; IC95 [5]: 3.68 nM; IC95 [7]: 5.26 nM

**Q.** Which IC50 [1] does the source give for `Cc1cc(C)c(-n2nnnc2SCC(=O)Nc2ccc(S(N)(=O)=O)cc2Cl)c(C)c1` here?
**A.** 34.5 nM

**Q.** And the IC95 [2]?
**A.** 62 nM

**Q.** And the IC50 [3]?
**A.** 4.05 nM

**Q.** What about the IC50 [4] of the same compound?
**A.** 10.4 nM

**Q.** What about the IC95 [5] of the same compound?
**A.** 16 nM

**Q.** For `N#Cc1cc(Cl)cc(Oc2cc(OCc3nc4cccc(Cl)c4s3)ccc2Cl)c1`, which IC50 [1] is on record?
**A.** 5.15 nM

**Q.** What about the IC95 [2] of the same compound?
**A.** 1250 nM

**Q.** And the IC50 [3]?
**A.** 3.06 nM

**Q.** What about the IC50 [4] of the same compound?
**A.** 5.98 nM

**Q.** What about the IC95 [5] of the same compound?
**A.** 156 nM

**Q.** Which AUC [8] does the source give for `N#Cc1cc(Cl)cc(Oc2cc(OCc3n[nH]c4ccccc34)ccc2Cl)c1` here?
**A.** 0.4 µM·h

**Q.** What about the half-life [9] of the same compound?
**A.** 8.1 h

**Q.** What about the IC50 [1] of the same compound?
**A.** 2.62 nM

**Q.** And the IC95 [6]?
**A.** 102 nM

**Q.** And the IC50 [10]?
**A.** 9.4 nM

**Q.** What about the IC95 [2] of the same compound?
**A.** 114 nM

**Q.** And the Vd [11]?
**A.** 2.9 L/kg

**Q.** And the AUC [12]?
**A.** 6.2 µM·h

**Q.** What about the IC50 [13] of the same compound?
**A.** 171 nM

**Q.** And the IC50 [14]?
**A.** 2.6 nM

**Q.** And the IC50 [15]?
**A.** 20.3 nM

**Q.** What about the IC50 [16] of the same compound?
**A.** 29.3 nM

**Q.** And the clearance [17]?
**A.** 13.6 mL/min/kg

**Q.** What about the IC50 [18] of the same compound?
**A.** 35.8 nM

**Q.** And the IC50 [19]?
**A.** 13.8 nM

**Q.** And the Vd [20]?
**A.** 7.1 L/kg

**Q.** And the IC50 [4]?
**A.** 1.12 nM

**Q.** What about the IC50 [21] of the same compound?
**A.** 21.7 nM

**Q.** And the IC50 [22]?
**A.** 7.9 nM

**Q.** What about the IC50 [23] of the same compound?
**A.** 4.7 nM

**Q.** What about the IC50 [24] of the same compound?
**A.** 141 nM

**Q.** And the bioavailability [25]?
**A.** 3.3%

**Q.** And the IC50 [26]?
**A.** 21 nM

**Q.** What about the IC50 [27] of the same compound?
**A.** > 1000 nM

**Q.** What about the Vd [28] of the same compound?
**A.** 1.2 L/kg

**Q.** What about the IC95 [5] of the same compound?
**A.** 22.6 nM

**Q.** And the half-life [29]?
**A.** 1.5 h

**Q.** What about the clearance [30] of the same compound?
**A.** 28.9 mL/min/kg

**Q.** And the IC50 [31]?
**A.** 23.4 nM

**Q.** What about the AUC [32] of the same compound?
**A.** 1.7 µM·h

**Q.** What about the half-life [33] of the same compound?
**A.** 4.7 h

**Q.** What about the clearance [34] of the same compound?
**A.** 24 mL/min/kg

**Q.** What about the IC95 [7] of the same compound?
**A.** 33.4 nM

**Q.** Which results are given for `N#Cc1cc(Cl)cc(Oc2cc(OCc3nc4cccc(Cl)c4o3)ccc2Cl)c1`?
**A.** IC50 [1]: 6.38 nM; IC95 [2]: 312 nM; IC50 [3]: 0.59 nM; IC50 [4]: 1.41 nM; IC95 [5]: 78 nM
